Experiments:
Format in all cases: in vivo, mouse
C57BL/KsJ db/db mice [1] = test: Oral glucose tolerance test (OGTT) in db/db mice; details: oral twice daily for 18 days, OGTT glucose 3 g/kg, fasted 18 hours, 5 hours after last treatment, n=6
Procedure: (§1) The C57BL/KsJ db/db mice used in the experiments were supplied by Jackson Lab (via Ch. River). After 10 days of acclimatisation in standard conditions (22±2 [deg.]C.; 55±15% humidity; 15-20 air changes/hour; 12 hour light-darkness cycle with light from 7 a.m. to 7 p.m.) on a standard 4 RF21 diet (Mucedola), blood samples were taken in post-absorption conditions (fasting from 8.30 a.m. to 4.30 p.m.) from the caudal vein with the aid of a Jelco 22G catheter (Johnson and Johnson). Glucose, insulin, triglyceride, cholesterol, free fatty acid and urea levels were checked in the plasma to ensure well-matched distribution of the mice in the treatment groups.
(§2) The mice were divided into groups and treated orally twice daily with:
(§3) Simvastatin 100 mg/kg; L-carnitine inner salt 400 mg/kg; acetyl L-carnitine HCl 592 mg/kg (equimolar amount respect to L-carnitine); propionyl L-carnitine HCl 627 mg/kg (equimolar amount respect to L-carnitine); L-carnitine inner salt 400 mg/kg+Simvastatin 100 mg/kg; acetyl L-carnitine HCl 592 mg/kg+Simvastatin 100 mg/kg; propionyl L-carnitine HCl 627 mg/kg+Simvastatin 100 mg/kg.
(§4) In the course of the experiment, serum glucose levels, glucose tolerance (OGTT), a number of lipid status variables and weight gain were monitored.

C57BL/KsJ db/db mice [2] = test: Plasma HDL-cholesterol levels of db/db mice; details: oral twice daily for 25 days, post-absorption (fasting 9 a.m. to 4.30 p.m.), 7.5 hours after last treatment, n=6
Procedure: as §1, §2, §3, §4

C57BL/KsJ db/db mice [3] = test: Plasma triglyceride levels of db/db mice; details: oral twice daily for 25 days, post-absorption (fasting 9 a.m. to 4.30 p.m.), 7.5 hours after last treatment, n=6
Procedure: as §1, §2, §3, §4

C57BL/KsJ db/db mice [4] = test: Blood glucose levels of db/db mice (feeding, post-absorption, fasting); details: n=6
Description: A much used genetically diabetic mouse model is the C57BL/KsJ db/db mouse.
The genetic basis of this model is a defect in the leptin receptor gene which gives rise to leptin resistance and leads to hyperphagia, obesity, hyperinsulinaemia and insulin resistance, with subsequent symptoms of insufficient insulin secretion and hyperglycaemia (Kodama et al., Diabetologia 37: 739-744, 1994; Chen et al, Cell 84: 491-495, 1996).
as §1
At the start of treatment, the body weight of the animals was checked and monitoring of the animals' consumption of water and feed was scheduled.
as §2, §3, §4

C57BL/KsJ db/db mice [5] = test: Plasma fructosamine levels of db/db mice (indicator of protein glycosylation); details: oral twice daily for 25 days, post-absorption (fasting 9 a.m. to 4.30 p.m.), 7.5 hours after last treatment, n=6
Procedure: as §1, §2, §3, §4

[6] = oral twice daily for 12 days, blood sample in feeding condition, approximately 15 hours after last treatment
[7] = oral twice daily for 12 days, post-absorption condition (fasting 9 a.m. to 5 p.m.), 8 hours after last treatment
[8] = oral twice daily for 18 days, fasted for 18 hours, 5 hours after last treatment

Compound	AUC Glucose (OGTT) Mean values (C57BL/KsJ db/db mice [1])	HDL-cholesterol Mean values (C57BL/KsJ db/db mice [2])	Triglycerides Mean values (C57BL/KsJ db/db mice [3])	Glucose Mean values (C57BL/KsJ db/db mice [4]; [6])	Glucose Mean values (C57BL/KsJ db/db mice [4]; [7])	Glucose Mean values (C57BL/KsJ db/db mice [4]; [8])	Fructosamine Mean values (C57BL/KsJ db/db mice [5])
CC(=O)O[C@H](CC(=O)[O-])C[N+](C)(C)C [Acetyl L-carnitine, acetyl L-carnitine]	49332.3 u.a.	84.5 mg/dL	85.6 mg/dL	468.0 mg/dL	416.1 mg/dL	332.0 mg/dL	0.85 mM
C[N+](C)(C)C[C@H](O)CC(=O)[O-] [L-carnitine]	50187.8 u.a.	84.0 mg/dL	85.7 mg/dL	470.0 mg/dL	416.5 mg/dL	324.8 mg/dL	0.81 mM
CCC(=O)O[C@H](CC(=O)[O-])C[N+](C)(C)C [Propionyl L-carnitine, propionyl L-carnitine]	49005.5 u.a.	80.9 mg/dL	86.2 mg/dL	475.5 mg/dL	411 mg/dL	328.6 mg/dL	0.81 mM
CCC(C)(C)C(=O)O[C@H]1C[C@@H](C)C=C2C=C[C@H](C)[C@H](CC[C@@H]3C[C@@H](O)CC(=O)O3)[C@H]21 [Simvastatin]	50973.3 u.a.	74.5 mg/dL	83.6 mg/dL	465.0 mg/dL	418.1 mg/dL	328.3 mg/dL	0.76 mM

From patent US20150045424A1, “COMPOSITION USEFUL FOR THE TREATMENT OF TYPE 2 DIABETES” (SIGMA-TAU INDUSTRIE FARMACEUTICHE RIUNITE S.P.A., priority 2007, published 2015)
